# Experimental data reported in patent publication US20080069809A1, “Compositions and methods for the diagnosis and treatment of cancer” (priority 2006, published 2008).
# Legend:
# HL60 [1] = assay: Apoptosis (sub-G1 DNA by FACS, caspase-3 activation) in HL60 leukemic cells; format: cell-based
# Method: (§1) The myeloid leukemic cell lines HL60, NB60, NB4, U937, K562 and KG1a were all grown in RPMI 1640 medium (Life Technologies, Paisley, United Kingdom) supplemented with 10% v/v fetal calf serum (Sear Laboratories International Crawley, United Kingdom), 100 U/mL penicillin, and 100 μg/mL streptomycin (Sigma Aldrich, Poole, United Kingdom) at 37° C. and 5% v/v CO2. AML blasts were isolated from patient bone marrow aspirates and peripheral blood of eight patients at diagnosis or relapse. Patients were not receiving AML therapy at time of sampling. Blasts were isolated by Ficoll density centrifugation and were cultured in serum-free insulin transferrin selenium-positive (ITS+) medium (Life Technologies) containing 300 ng/mL stem cell factor (SCF) and 10 ng/mL interleukin 3 (IL3; R and D Systems, Abingdon, United Kingdom) and antibiotics. […] Normal myeloblasts were isolated from cord blood or adult mobilized peripheral blood. Briefly, CD34^+ cells were indirectly selected from the mononuclear cell preparations using antibody-coated magnetic beads (Miltenyi Biotec, United Kingdom).
# To determine the effects of ingenol-3-angelate (PEP005), cells were incubated for up to 5 days with medium alone or PEP005 at a range of concentrations from 0.2 nM to 20 μM. PEP005 was extracted from Euphorbia peplus and supplied as a 98.5% pure preparation by Peplin Limited (Brisbane, Australia) as a dry pellet and was made up to a stock of […] in acetone on a weekly basis. Stocks were stored at 4° C. and diluted into medium when required. Final acetone concentration was never more than 0.1% v/v. Apoptosis and differentiation were assessed after 1 to 5 days.
# K562 [2] = details: less sensitive, treated 5 days
# Method: as §1
# (§2) To determine the effects of ingenol-3-angelate (PEP005), cells were incubated for up to 5 days with medium alone or PEP005 at a range of concentrations from 0.2 nM to 20 μM. […] Apoptosis and differentiation were assessed after 1 to 5 days.
# U937 = details: sub-G1 DNA by FACS, treated 5 days
# Method: as §1, §2
# KG1a = assay: Apoptosis (sub-G1 DNA by FACS) in KG1a leukemic cells; format: cell-based; details: even at 20 μM PEP005
# Method: as §1, §2
# K562 [3] = assay: Differentiation (CD11b expression) in K562 cells; format: cell-based
# Method: The myeloid leukemic cell lines HL60, NB60, NB4, U937, K562 and KG1a were all grown in RPMI 1640 medium (Life Technologies, Paisley, United Kingdom) supplemented with 10% v/v fetal calf serum (Sear Laboratories International Crawley, United Kingdom), 100 U/mL penicillin, and 100 μg/mL streptomycin (Sigma Aldrich, Poole, United Kingdom) at 37° C. and 5% v/v CO2. AML blasts were isolated from patient bone marrow aspirates and peripheral blood of eight patients at diagnosis or relapse. Patients were not receiving AML therapy at time of sampling. […] Blast purity ranged from 80% to 95%, as assessed by expression of CD34. […]
# Cell differentiation was determined by staining of cells with anti-CD11b antibody as a general early marker of myeloid differentiation. In studies with HL60 cells, PEP005-treated and 20 nM phorbol myristate (PMA)-treated (Sigma Aldrich) cells were also assessed for their ability to phagocytose complement-coated yeast, a marker of a fully differentiated myeloid cell, as previously described (Toksoz et al, Leukemia Res 6:491-498, 1982). […] Images were captured with a SPOT2 cameria (Diagnostic Instructions, Sterling Heights, Mich.) and analyzed using Image-Pro 4.0 software (Media Cybernetics, Silver Spring, Md.).
# HL60 [4] = assay: Phagocytosis of complement-coated yeast by HL60 cells; format: cell-based; details: after 3 days of treatment, PMA 20 nM
# Method: Cell differentiation was determined by staining of cells with anti-CD11b antibody as a general early marker of myeloid differentiation. In studies with HL60 cells, PEP005-treated and 20 nM phorbol myristate (PMA)-treated (Sigma Aldrich) cells were also assessed for their ability to phagocytose complement-coated yeast, a marker of a fully differentiated myeloid cell, as previously described (Toksoz et al, Leukemia Res 6:491-498, 1982). The ingestion of three or more yeasts was taken as a positive result. In normal cord blood or adult bone marrow myeloblasts, loss of CD34 was taken as a marker of differentiation. Isotype-matched controls were used and all antibodies were from DAKO (Cambridge, United Kingdom). […] Cells were also used to prepare cytospins, which were then differentially stained using a commercial May-Grünwald-Ginesa stain (Diff-Kwik; Gamidor, Abingdon, United Kingdom) to identify cells with a blast or differentiated or apoptotic morphology. Slides were examined using a Zeiss III RS brightfield microscope equipped with a 40×/0.75 water-immersion objective (Carl Zeiss, Jena, Germany). Images were captured with a SPOT2 cameria (Diagnostic Instructions, Sterling Heights, Mich.) and analyzed using Image-Pro 4.0 software (Media Cybernetics, Silver Spring, Md.).
structure (smiles),measurement,setting,value
"C/C=C(/C)C(=O)O[C@H]1C(C)=C[C@]23C(=O)[C@@H](C=C(CO)[C@@H](O)[C@]12O)[C@H]1[C@@H](C[C@H]3C)C1(C)C [PEP005, ingenol-3-angelate]",apoptosis (caspase-3 activity),"HL60 [1]; after 3 days of treatment, PMA 20 nM",apoptosis was the dominant effect
same,"PEP005 concentration with optimal effect, apoptosis","HL60 [1]; sub-G1 DNA by FACS, treated 5 days",20 nM
same,fraction of cells entering apoptosis (kinetic study),HL60 [1]; within the first 1 to 2 days of treatment,up to half of the cells entering apoptosis
same,"PEP005 concentration with maximal response, apoptosis",K562 [2],2 µM
same,"PEP005 concentration with optimal effect, apoptosis",U937,20 nM
same,entry into apoptosis,KG1a,did not enter apoptosis
same,CD11b expression,K562 [3],did not increase expression of CD11b
same,differentiation to phagocytes (ability to phagocytose yeast),HL60 [4],did not lead to production of phagocytic cells
